Results: patent EP0415567A2, “Composition and method for stabilising organic compounds” (QUADRANT BIORESOURCES LIMITED, priority 1989, dated 1991)

Assays:
DNA ligase = test: Storage stability of dried ATP by DNA ligase assay; type: biochemical; details: ATP at 0.5 mM dried with ligase in trehalose buffer, no acetate as efflorescent salt; 2 weeks at 37°C
Excerpt: Using an assay for DNA ligase whioh joins DNA fragments using ATP as an energy source.

[1] = solutions of 25% wv, in six hours at 5°C; cited from earlier work

Row | Compound | stability of ATP in the dry state (DNA ligase) | loss of potency [1] [%]
1 | Nc1ncnc2c1ncn2[C@@H]1O[C@H](COP(=O)(O)OP(=O)(O)OP(=O)(O)O)[C@@H](O)[C@H]1O [ATP] | completely stable | 
2 | CC1(C)S[C@@H]2[C@H](NC(=O)[C@H](N)c3ccccc3)C(=O)N2[C@H]1C(=O)O [Ampicillin sodium] |  | 20
